Laboratory results taken from patent publication US20130029983A1, “AMINOTHIENOPYRIDAZINE INHIBITORS OF TAU ASSEMBLY” (priority 2009, published 2013).
Like-named read-outs stand apart in the source and are kept apart here.

What was measured:
[1] = biological target: T1, K18PL tau (Homo sapiens, UniProt P10636, P618L); test: Heparin-induced K18PL tau fibrillization assay monitored by ThT fluorescence; assay type: biochemical; conditions: for Emax: read-out: K18PL (ThT) maximal percent inhibition achieved in the assay
T1 construct: (K18PL; amino acids 244-369); made in house
In short: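 K18PL (30 μM stock, with 0.24 μM Alexa Red-labeled K18PL) plus 40 μM heparin and compound, fibrillized 6 h at 37 °C. Fibrils read by ThT (12.5 μM final, in 100 mM glycine pH 8.5, 1 h RT), ex 450/em 510 nm. Percent inhibition scaled between DMSO wells and non-fibrillizing K18 KD control wells.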

[2] = biological target: T2, full-length tau (tau40) (Homo sapiens, UniProt P10636); test: Tau40 fibrillization sedimentation assay; assay type: biochemical; conditions: SDS-PAGE of soluble and insoluble fractions after centrifugation; for Emax: read-out: Tau40 Sed. Assay, maximal percent inhibition of tau40 fibrillization
T2 construct: Full length tau (Tau40; amino acids 1-441); made in house
Protocol: The determination of compound-induced effects on the amount of tau that remains soluble upon centrifugation, and EM visualization of tau species following incubation with test compounds, were as previously described (Crowe, A., Ballatore, C., Hyde, E., Trojanowski, J. Q., and Lee, V. M. Y. (2007) Biochemical and Biophysical Research Communications 358, 1-6). […]

[3] = biological target: T1, K18PL tau; test: K18PL tau centrifugation (sedimentation) assay, SDS-PAGE densitometry; assay type: biochemical; conditions: for Emax: read-out: K18PL Sed. Assay, maximal percent inhibition of K18PL fibrillization
In short: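 Heparin-induced fibrillization of K18PL tau in sodium acetate buffer with test compound; mixtures were centrifuged and soluble versus insoluble K18PL quantified by SDS-PAGE densitometry. A repeat run centrifuged DMSO- and compound-treated mixtures for 30 min at time zero to remove pelletable material before incubation.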

[4] = Brain and plasma drug levels 1 h after i.p. administration (LC-MS/MS); assay type: in vivo; conditions: mice; for B/P, ratio between brain/plasma drug level: 1 h after i.p. 5 mg/Kg
Protocol: (§1) Test compounds underwent preliminary evaluations of brain penetration, in which 5 mg/Kg of each compound was administered intraperitoneally (i.p.) to a group of three normal mice; drug levels in brain and plasma were determined at a single time-point (1 h) by LC-MS/MS using pre-validated calibration curves. […] However, both esters appeared to have relatively short half-lives in plasma, as indicated by the limited amount of parent drug detected after 1 h from administration of the compounds. […] CNDR-51362 was selected for full PK analysis in which brain and plasma drug levels were determined at six time points (i.e., 30 min, 1 h, 2 h, 4 h, 8 h, and 16 h). The results from this experiment, illustrated in FIG. 6A, confirmed that the total B/P exposure ratio over 16 h is 1.6. […] Finally, in order to investigate the potential for ATPZ congeners to be orally administered, we evaluated brain and plasma level of CNDR-51362 and CNDR-51349 after oral administration of 5 mg/Kg.
(§2) Brain tissue was homogenized in 10 mM ammonium acetate, pH 5.7 (1:2; w/v) using a handheld sonic homogenizer. Plasma was obtained from blood that was collected into a 1.5 mL tube containing 0.5M EDTA solution and subjected to centrifugation for 10 min. at 4500 g at 4° C. Aliquots (50 μL) of brain homogenate or plasma were mixed with 0.2 mL of acetonitrile, centrifuged at 15,000 g, and the resulting supernatants were used for subsequent LC-MS/MS analysis. The LC-MS/MS system was comprised of an Aquity HPLC and a TQ MS that was controlled using MassLynx software (Waters Corporation, Milford, Mass., USA). Compounds were detected using multiple reaction monitoring (MRM) of their specific collision-induced ion transitions. Samples (5 μL) were separated on an Aquity BEH C18 column (1.7 μm, 2.1×50 mm) at 35° C. Operation was in positive electrospray ionization mode, with mobile phase A of 0.1% (v/v) formic acid, and B of either acetonitrile or methanol with 0.1% (v/v) formic acid at a flow rate of 0.6 mL/min using a gradient from 5% to 95% B over two min., followed by wash and re-equilibration steps. The MS was operated with a desolvation temperature of 450° C. and a source temperature of 150° C. Desolvation and source nitrogen gas flows were 900 L/hr and 50 L/hr, respectively. Source and MS/MS voltages were optimized for each compound using the MassLynx auto tune utility. Standard curves were generated for each compound from brain homogenate and plasma samples that had compound added at 4, 40, 400 and 4000 ng/mL and extracted as above. Peak areas were plotted against concentration and a 1/x weighted linear regression curve was used to quantify the tissue-derived samples using the average peak area from triplicate injections.

[5] = Turbidimetric solubility in fibrillization buffer; assay type: physicochemical; conditions: 100 mM NaOAc pH 7.0 fibrillization buffer, 1% DMSO
Protocol: Compounds were serially diluted in DMSO to achieve a 2.5 fold dilution series from 20 mM down 8 points to […] on a 384-well master plate (Costar 3672). Aliquots (2 μL) were transferred to a clear 96-well assay plate (Fisher 12-565-501) containing 198 μL fibrillization buffer (100 mM NaOAc pH 7.0) for a 100-fold dilution (200 μM down to 0.3 μM). The plate was incubated with agitation for 2.5 h, and the absorbance at 550, 600, 650 and 700 nm was measured on a Spectramax M5 spectrophotometer. DMSO (1%) in fibrillization buffer served as a control that was subtracted from each data point. The absorbances were averaged and the concentration at which the average absorbance rose above 0.03 AU was an indication of insoluble compound, with solubility limits reported as the previous concentration in the dilution series.

[6] = Full PK analysis and oral administration, brain and plasma levels; assay type: in vivo, mice; conditions: oral 5 mg/Kg, FIGS. 6B and 6C; 5 mg/kg
Protocol: FIG. 6. (A) Brain and plasma level of F4 (CNDR-51362) after i.v. administration at 2 mg/Kg; (B) Brain and plasma level of F4 (CNDR-51362) after oral administration at 5 mg/Kg; (C) Brain and plasma level of F3 (CNDR-51349) after oral administration at 5 mg/Kg
as §1, §2

[7] = biological target: T3, Tau40 (Homo sapiens, UniProt P10636); test: SEC of Tau40 fibrillization post-centrifugation supernatants; assay type: biochemical; conditions: tau40 fibril assembly with 5b relative to untreated fibrillization reaction, FIG. 2
T3 construct: Full length tau (Tau40; amino acids 1-441); made in house
Protocol: Tau40 (50 μM) and heparin (20 μM) were incubated in a PCR tube with or without the compound 5b (100 μM) at 37° C. for 5 days in a final volume of 100 μl of […] sodium acetate buffer, pH 7.0. In the absence of compound, tau40 fibrillization is complete under these conditions, as determined by ThT fluorescence and centrifugation assays. A non-assembly control reaction was also prepared as above with Tau40 and 5b in the absence of heparin. The completed reactions were centrifuged at 40,000 g for 30 minutes to sediment fibrils and the supernatants were applied to a Superdex 200 10/300 column (GE Healthcare) employing an Äkta Basic FPLC unit (GE Healthcare) with a flow rate of 0.4 ml/minute. Tau elution was monitored by absorbance at 280 nm. Under these chromatography conditions, monomeric tau can be separated from oligomeric species (Li, W. K. and Lee, V. M. Y. (2006) Biochemistry 45, 15692-15701).

[8] = biological target: T4, Aβ(1-42) (Homo sapiens, UniProt P05067); test: Aβ(1-42) fibrillization assay (ThT); assay type: biochemical; conditions: Table 3; highest tested concentration (80 μM); read-out: Aβ42 ThT Assay % Inhib.
T4 construct: Synthetic Aβ(1-42) peptide (rPeptide); purchased rPeptide

[9] = biological target: T5, K18 tau-mediated tubulin polymerization (Homo sapiens, UniProt P10636); test: Tau-mediated MT assembly assay (K18 tau, tubulin); assay type: biochemical, bovine (tubulin); conditions: 50 μM compound, FIG. 1A
T5 construct: (K18PL; amino acids 244-369)
Protocol: The effect of compounds on tau-mediated MT assembly was essentially as described (Hong, M., Zhukareva, V., Vogelsberg-Ragaglia, V., Wszolek, Z., Reed, L., Miller, B. I., Geschwind, D. H., Bird, T. D., McKeel, D., Goate, A., Morris, J. C., Wilhelmsen, K. C., Schellenberg, G. D., Trojanowski, J. Q., and Lee, V. M. Y. (1998) Science 282, 1914-1917), adapted to a 384-well plate. […] Lyophilized bovine brain tubulin (Cytoskeleton Inc.) was reconstituted in RAB (100 mM MES, pH 6.9; 1 mM EDTA; 0.5 mM MgSO4) at a concentration of 10 mg/ml. Compounds (50 μM) were added to K18 tau (40 μM) in RAB and pre-incubated at room temperature for 60 minutes. To initiate the MT assembly reaction, 8.25 μl per well of 10 mg/ml tubulin was dispensed on a UV-clear 384-well plate (Corning #3675), followed by 1.0 μl of 100 mM GTP in RAB and 41.25 μl of the compound:tau mixture. […] The plate was incubated in a Spectramax M5 plate reader at 37° C. and the absorbance at 340 nm was read every minute for 45 minutes.

[10] = Table 5, read-out: K18PL (ThT) IC50 value
[11] = SDS-PAGE of soluble and insoluble fractions after centrifugation

T2 sequence (P10636 1-441 isoform P10636-8): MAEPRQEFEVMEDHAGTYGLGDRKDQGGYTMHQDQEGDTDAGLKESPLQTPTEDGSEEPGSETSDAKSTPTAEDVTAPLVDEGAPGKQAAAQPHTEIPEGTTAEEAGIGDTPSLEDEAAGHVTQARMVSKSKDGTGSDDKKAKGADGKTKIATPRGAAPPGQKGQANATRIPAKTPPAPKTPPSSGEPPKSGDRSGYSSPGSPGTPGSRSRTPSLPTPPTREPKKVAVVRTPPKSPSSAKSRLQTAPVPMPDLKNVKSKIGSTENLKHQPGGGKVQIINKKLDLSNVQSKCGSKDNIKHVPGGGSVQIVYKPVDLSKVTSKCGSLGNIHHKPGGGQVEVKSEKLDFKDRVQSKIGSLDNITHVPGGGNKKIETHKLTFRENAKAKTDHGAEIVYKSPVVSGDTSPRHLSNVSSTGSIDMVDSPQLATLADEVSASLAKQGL
T1 sequence (P10636 561-686 P618L): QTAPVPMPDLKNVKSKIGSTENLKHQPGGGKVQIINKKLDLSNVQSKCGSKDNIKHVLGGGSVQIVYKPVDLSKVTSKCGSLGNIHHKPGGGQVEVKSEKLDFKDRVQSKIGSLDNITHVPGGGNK
T5 sequence (P10636 561-686): as the sequence (P10636 561-686 P618L) above, with L58P counted along it
T3 sequence (P10636 1-441 isoform P10636-8): as the sequence (P10636 1-441 isoform P10636-8) above
T4 sequence (P05067 672-713 limits assumed): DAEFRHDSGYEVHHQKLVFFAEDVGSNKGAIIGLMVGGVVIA

Row | SMILES | IC50 [1, 10] | Emax ([1]; Table 5) | Tau40 Sed. Assay, maximal percent inhibition of tau40 fibrillization [2] | Emax [2] | Emax [3, 11] | Brain penetration ([4]; i.p. 5 mg/Kg, 1 h) | B/P, ratio between brain/plasma drug level [4] | melting point | Water Solubility [5] | Brain concentration after oral administration [6] | Brain level ([4]; 1 h after i.p. 5 mg/kg, listed as CNDK-51349, 5 mg/kg) | K18PL Sed. Assay, maximal percent inhibition of K18PL fibrillization [3, 11] | inhibition at 80 µM ([1]; Table 3, highest tested concentration (80 μM), read-out: Tau ThT Assay % Inhib.) | IC50 ([1]; Table 3, logarithm of IC50, K18PL tau ThT fluorescence inhibition, NC = not calculated due to insufficient activity, read-out: Tau ThT Assay Log IC50 (converted)) | inhibition at 80 µM [8] | Tau Cent. Assay % Soluble ([3]; Table 3, K18PL tau centrifugation assay) | Effect on tau-mediated tubulin polymerization (MT formation) [9] | Monomeric tau in post-centrifugation supernatant (SEC) [7]
1 | Nc1scc2c(C(=O)O)nn(-c3ccc(Cl)cc3)c(=O)c12 [CNDR-51348, 5-Amino-3-(4-chlorophenyl)-4-oxo-3,4-dihydrothieno[3,4-d]pyridazine-1-carboxylic acid] | 1.6 µM | 87% | 62% | 50 to 60% | 79% | lack of brain penetration | 0.023 | > 300 °C |  |  |  |  |  |  |  |  |  | 
2 | CC(C)NC(=O)c1nn(-c2ccc(Cl)cc2)c(=O)c2c(N)scc12 [CNDR-51349, 5-Amino-3-(4-chlorophenyl)-N-isopropyl-4-oxo-3,4-dihydrothieno[3,4-d]pyridazine-1-carboxamide] | 0.7 µM | 88% | 45% | 50 to 60% | 65% |  | 2.2 |  | 32 µM | significant brain concentrations | 1100 ng/g |  |  |  |  |  |  | 
3 | CCN(C)C(=O)c1nn(-c2ccc(Cl)cc2)c(=O)c2c(N)scc12 [CNDR-51366, 5-Amino-3-(4-chlorophenyl)-N-ethyl-N-methyl-4-oxo-3,4-dihydrothieno[3,4-d]pyridazine-1-carboxamide] | 6.8 µM | 91% | 58% | 50 to 60% | 62% |  | 0.89 |  | 80 µM |  |  |  |  |  |  |  |  | 
4 | CC(C)OC(=O)c1nn(-c2ccc(Cl)cc2)c(=O)c2c(N)scc12 [CNDR-51371, Isopropyl 5-amino-3-(4-chlorophenyl)-4-oxo-3,4-dihydrothieno[3,4-d]pyridazine-1-carboxylate] | 1.5 µM | 81% | 61% | 50 to 60% | 44% |  |  | 118 to 120 °C | 32 µM |  |  |  |  |  |  |  |  | 
5 | CCOC(=O)c1nn(-c2ccc(OC)cc2)c(=O)c2c(N)scc12 [Compound 5b] |  |  |  |  |  |  |  |  |  |  |  |  | 86% | 5.01 µM | 28% | 64% |  | appreciable increase in the amount of monomeric tau

Continued, in another order:

Row | IC50 [1, 10] | Emax ([1]; Table 5) | Tau40 Sed. Assay, maximal percent inhibition of tau40 fibrillization [2] | Emax [2] | Emax [3, 11] | Brain penetration ([4]; i.p. 5 mg/Kg, 1 h) | B/P, ratio between brain/plasma drug level [4] | melting point | Water Solubility [5] | Brain concentration after oral administration [6] | Brain level ([4]; 1 h after i.p. 5 mg/kg, listed as CNDK-51349, 5 mg/kg) | K18PL Sed. Assay, maximal percent inhibition of K18PL fibrillization [3, 11] | inhibition at 80 µM ([1]; Table 3, highest tested concentration (80 μM), read-out: Tau ThT Assay % Inhib.) | IC50 ([1]; Table 3, logarithm of IC50, K18PL tau ThT fluorescence inhibition, NC = not calculated due to insufficient activity, read-out: Tau ThT Assay Log IC50 (converted)) | inhibition at 80 µM [8] | Tau Cent. Assay % Soluble ([3]; Table 3, K18PL tau centrifugation assay) | Effect on tau-mediated tubulin polymerization (MT formation) [9] | SMILES | Monomeric tau in post-centrifugation supernatant (SEC) [7]
6 | 5.3 µM | 88% | 69% | 50 to 60% |  |  | 0.44 |  | 32 µM |  |  | 69% |  |  |  |  |  | CN(C)C(=O)c1nn(-c2ccc(Cl)cc2)c(=O)c2c(N)scc12 [CNDR-51361, 5-Amino-3-(4-chlorophenyl)-N,N-dimethyl-4-oxo-3,4-dihydrothieno[3,4-d]pyridazine-1-carboxamide] | 
7 | 5.6 µM | 91% | 57% | 50 to 60% | 94% |  | 1.8 |  | 32 µM |  |  |  |  |  |  |  |  | CCNC(=O)c1nn(-c2ccc(Cl)cc2)c(=O)c2c(N)scc12 [CNDR-51365, 5-Amino-3-(4-chlorophenyl)-N-ethyl-4-oxo-3,4-dihydrothieno[3,4-d]pyridazine-1-carboxamide] | 
8 | 4.3 µM | 91% | 51% | 50 to 60% | 68% |  | 0.49 |  | 13 µM |  |  |  |  |  |  |  |  | CNC(=O)c1nn(-c2ccc(Cl)cc2)c(=O)c2c(N)scc12 [CNDR-51367, 5-Amino-3-(4-chlorophenyl)-N-methyl-4-oxo-3,4-dihydrothieno[3,4-d]pyridazine-1-carboxamide] | 
9 | 2.2 µM | 89% | 55% | 50 to 60% | 58% |  | 2.0 |  | 13 µM |  |  |  |  |  |  |  |  | CC(C)NC(=O)c1nn(-c2ccc(Br)cc2)c(=O)c2c(N)scc12 [CNDR-51390, 5-Amino-3-(4-bromophenyl)-N-isopropyl-4-oxo-3,4-dihydrothieno[3,4-d]pyridazine-1-carboxamide] | 
10 |  |  |  |  |  |  |  |  |  |  |  |  |  |  |  |  | significant diminution | CN(C)c1ccc2nc3ccc(=[N+](C)C)cc-3sc2c1 [methylene blue] | 
